{"source": "patent US4080466A", "about": "“Pharmaceutical compositions containing 4-hydroxyl-1,3-dithiolan-2-ylidene malonates” (Nihon Nohyaku Co., Ltd., priority 1976, dated 1978)", "key": {"[1]": {"test_system": "alcohol metabolic function of liver", "experiment": "Effect on Concentration of Ethyl alcohol in the Blood", "type": "in vivo, mice", "settings": "250 mg/kg oral, 6 h before ethyl alcohol 1,000 mg/kg", "protocol": "After 6 hours, 1,000 mg/kg of ethyl alcohol was given orally. Blood was taken in a capillary from caudal vein at the time indicated in the results. The plasma was obtained by centrifugation. The concentration of ethyl alcohol in the plasma was measured by FID type gas liquid chromatography. Five mice were used for each group."}, "glucose metabolism [2]": {"test_system": "glucose metabolism", "experiment": "Effect on glucose metabolism", "type": "in vivo, mice", "settings": "250 mg/kg oral, 6 h before glucose 4.0 g/kg", "protocol": "The test compounds dissolved in olive oil and administered orally at the dose of 250 mg/kg to the mice. After 6 hours, 4.0 g/kg of glucose was orally administered. The same amount of glucose was given to the control animals. 0.02 ml of blood was taken from caudal vein of the mice at 30, 60, 90 and 120 min. after glucose administration. Blood sugar was measured by the procedure of Somogyi-Nelson. Number of animals used was 5 to 6 mice for each treatment."}, "glucose metabolism [3]": {"test_system": "glucose metabolism", "experiment": "Effect on glucose metabolism", "type": "in vivo, mice", "settings": "250 mg/kg oral, 6 h before glucose 4.0 g/kg; 0 min"}, "[4]": {"test_system": "acute liver damage induced by carbon tetrachloride", "experiment": "Protective Effect on Acute Liver Damage associated with Centrilobular Necrosis (carbon tetrachloride)", "type": "in vivo, mice (dd-strain)", "settings": "250 mg/kg oral, average of 5 to 6 mice", "excerpt": "Carbon tetrachloride (CCl4) administration induces centrilobular necrosis of the liver associated with loss of diphosphopyridine nucleotide, hepatic glycogen, coenzyme A and increase in neutral fat. Release of several enzymes from the hepatocytes, and increase of enzyme activities in the plasma are recognized as the result of the damage of the liver. A suitable means for evaluating the degree of damage induced by CCl4 or the degree of protection afforded by drugs is to study the plasma glutamic-pyruvic transminase (p-GPT) activity.\nMethods: The test compounds were dissolved or suspended in olive oil and administered orally at the dose of 250 mg/kg to the mice (Four-week-old male mice-dd strain). After 6 hours, CCl4 was administered orally (0.05 ml/kg as olive oil solution). Animals were killed 24 hours after CCl4 administration, and the liver was grossly observed. The plasma was obtained by centrifugation. Activities of p-GPT were determined by the method of Reitman and Frankel and expressed in Karmen units.\nScore for liver damage index was as follows:\n4 Clearly observable damage\nEach figure indicates average of 5 to 6 mice. Values of p-GPT over 1,000 Karmen unit regarded as 1,000 for calculation of average for convenience."}, "[5]": {"test_system": "excretion of biliary salt", "experiment": "Cholagogic Action: effect on the excretion of biliary salt", "type": "in vivo, rats (SD-JCL strain)", "settings": "200 mg/kg oral; for Excretion of biliary salt: before treatment = 100", "protocol": "(§1) Drugs as choleresis are used for patients to improve bile flow. In the present example, the effect of the compound of the invention on the quantities of bile and biliary salt is investigated. Methods:\n(§2) The male rats (4 week-aged, SD-JCL strain) were anesthetized with sodium pentobarbital (37.5 mg/kg, intraperitoneal injection). The abdominal cavity was opened through a midline incision. The common bile duct was catheterized with polyethylene tube o.d. 0.8 mm. The catheter was brought to the outside through the abdominal incision would prior to closing. Bile was collected from the catheter continuously with time intervals of one hour. The quantity of bile produced in one hour was determined by weighing and that of biliary salt was determined by enzymatic method (Ikagaku Jikkenho Koza 1B, Biological Constituents II, edited by Tamio YAMAKAWA). The amount of biliary salt was represented in the term of cholic acid equivalent.\n(§3) In the representation of the results, the quantities of bile and biliary salt produced in one hour prior to the administration of drug were taken as 100. The compound of this invention was orally administered at the dose of 200 mg/kg. As reference, anethol trithion was used."}, "[6]": {"test_system": "fatty liver induced by ethionine", "experiment": "Effect on Fatty Liver (ethionine)", "type": "in vivo, mouse (dd-strain)", "settings": "250 mg/kg oral, 24 h, 10 animals", "excerpt": "But, the fatty liver is grouped into a couple of patterns from the mechanism of lipid accumulation or metabolism of lipoprotein in the liver. Ethionine is a typical example which induces first pattern of fatty liver. It inhibits RNA and protein synthesis and destructs polysome of the liver cell. Fatty liver is induced by inhibition of the protein synthesis and disturbance of lipoprotein secretion.\nUsually, fatty liver is closely related to the accumulation of triglyceride in the liver. In the present example, the degree of fatty liver and protective or therapeutic effect against the fatty liver was evaluated by measurement of triglyceride content in the liver. Methods:\nThe compounds of this invention and methionine were independently dissolved or suspended into olive oil and administered orally to 4 week-old male mouse (dd-strain) at the dose of 250 mg/kg. One hour before it, simultaneously to it, or one hour after it, ethionine dissolved in equimolar NaOH solution was administered intraperitoneally at the dose of 200 mg/kg. Twenty four hours after the administration of ethionine, the animals were sacrificed and triglyceride content in the liver was determined by chromotropic acid method."}, "[7]": {"test_system": "fatty liver induced by carbon tetrachloride", "experiment": "Therapeutic Effect on Fatty Liver (carbon tetrachloride)", "type": "in vivo, rats (SD strain)", "settings": "10 days; for Degree of fatty liver (histopathological examination): one symbol per animal", "protocol": "Methods: […] The treated animals were left for 3 days after the last administration to maximize the manifestation of fatty liver. […] It was orally given everyday for 10 days at the dose of 50 or 250 mg/kg. On the 11th day, the animals were sacrificed. The therapeutic effect was evaluated by determining the content of liquid in the liver (triglyceride and total lipid) and examining the histopathological changes. Triglyceride and total lipid were determined colorimetrically by chromotropic acid method and Bragdon's oxidation method, respectively. Indices for the histopathological change is as follows: […]"}, "bile flow": {"test_system": "bile flow", "experiment": "Cholagogic Action: effect on bile flow", "type": "in vivo, rats (SD-JCL strain)", "settings": "200 mg/kg oral; for Bile flow: before treatment = 100", "protocol": "as §1, §2, §3"}}, "data": [{"compound": "CCOC(=O)C(C(=O)OCC)=C1SCC(O)S1", "note": "(stereo not drawn) [Compound 1, Diethyl 4-hydroxy-1,3-dithiolan-2-ylidene malonate]", "values": [{"measurement": "Concentration of Ethyl alcohol in Plasma", "setting": "[1]; 0 min", "result": "12±3", "unit": "ppm"}, {"measurement": "Concentration of Ethyl alcohol in Plasma", "setting": "[1]; 5 min", "result": "732±102", "unit": "ppm"}, {"measurement": "Concentration of Ethyl alcohol in Plasma", "setting": "[1]; 15 min", "result": "710±88", "unit": "ppm"}, {"measurement": "Concentration of Ethyl alcohol in Plasma", "setting": "[1]; 30 min", "result": "455±112", "unit": "ppm"}, {"measurement": "Concentration of Ethyl alcohol in Plasma", "setting": "[1]; 60 min", "result": "12±7", "unit": "ppm"}, {"measurement": "Blood Sugar", "setting": "glucose metabolism [2]; 30 min", "result": "260 ± 20.4", "unit": "mg/dL"}, {"measurement": "Blood Sugar", "setting": "glucose metabolism [2]; 60 min", "result": "228 ± 15.2", "unit": "mg/dL"}, {"measurement": "Blood Sugar", "setting": "glucose metabolism [2]; 90 min", "result": "188 ± 11.3", "unit": "mg/dL"}, {"measurement": "Blood Sugar", "setting": "glucose metabolism [2]; 120 min", "result": "132 ± 10.4", "unit": "mg/dL"}, {"measurement": "Blood Sugar", "setting": "glucose metabolism [3]", "result": "138 ± 18.2", "unit": "mg/dL"}, {"measurement": "Liver damage index", "setting": "[4]; 6 h before CCl4 (0.05 ml/kg oral), score 0 Normal, 2 slight, 4 clear, 6 heavy damage", "result": 0.5}, {"measurement": "p-GPT (plasma glutamic-pyruvic transaminase activity)", "setting": "[4]; 6 h before CCl4, 24 h after CCl4, values over 1,000 regarded as 1,000", "result": 66, "unit": "Karmen units"}, {"measurement": "Excretion of biliary salt", "setting": "[5]; 1 hour after treatment", "result": "103 ± 6.8"}, {"measurement": "Excretion of biliary salt", "setting": "[5]; 2 hours after treatment", "result": "102 ± 6.6"}, {"measurement": "Excretion of biliary salt", "setting": "[5]; 3 hours after treatment", "result": "100 ± 5.8"}, {"measurement": "Excretion of biliary salt", "setting": "[5]; 4 hours after treatment", "result": "95 ± 7.7"}, {"measurement": "Amount of total excreted biliary salts relative to control", "setting": "[5]; 5 hours after administration", "result": 1.40, "unit": "times"}, {"measurement": "Excretion of biliary salt", "setting": "[5]; 5 hours after treatment", "result": "86 ± 5.2"}, {"measurement": "Triglyceride", "setting": "[6]; compound 1 hr after ethionine", "result": "11.8 ± 0.72", "unit": "mg/g-liver"}, {"measurement": "Triglyceride", "setting": "[6]; compound 1 hr before ethionine (200 mg/kg i.p.)", "result": "12.3 ± 0.82", "unit": "mg/g-liver"}, {"measurement": "Triglyceride", "setting": "[6]; simultaneous with ethionine (0 hr)", "result": "7.1 ± 0.24", "unit": "mg/g-liver"}, {"measurement": "Total lipid", "setting": "[7]; 50 mg/kg oral", "result": "80.2 ± 9.8", "unit": "mg/g-liver"}, {"measurement": "Triglyceride", "setting": "[7]; 50 mg/kg oral", "result": "36.2 ± 7.8", "unit": "mg/g-liver"}, {"measurement": "Degree of fatty liver (histopathological examination)", "setting": "[7]; 50 mg/kg oral", "result": "± + ± ± ± ± +"}, {"measurement": "Total lipid", "setting": "[7]; 250 mg/kg oral", "result": "70.3 ± 10.2", "unit": "mg/g-liver"}, {"measurement": "Triglyceride", "setting": "[7]; 250 mg/kg oral", "result": "24.9 ± 8.2", "unit": "mg/g-liver"}, {"measurement": "Degree of fatty liver (histopathological examination)", "setting": "[7]; 250 mg/kg oral", "result": "± ± - - ± ± ±"}, {"measurement": "Bile flow", "setting": "bile flow; 1 hour after treatment", "result": "110 ± 1.8"}, {"measurement": "Bile flow", "setting": "bile flow; 2 hours after treatment", "result": "115 ± 6.8"}, {"measurement": "Bile flow", "setting": "bile flow; 3 hours after treatment", "result": "105 ± 6.2"}, {"measurement": "Bile flow", "setting": "bile flow; 4 hours after treatment", "result": "98 ± 8.2"}, {"measurement": "Quantity of total excreted bile relative to control", "setting": "bile flow; 5 hours after administration", "result": 1.10, "unit": "times"}, {"measurement": "Bile flow", "setting": "bile flow; 5 hours after treatment", "result": "80 ± 6.8"}]}]}
